US20250127933A1, “Method of verifying effectiveness and stability of linker in Drug Delivery system and Structure therefor” (INDUSTRY-ACADEMIC COOPERATION FOUNDATION OF SUNCHON …, priority 2023, published 2025)

Columns and labels:
[1] = test system: Leucine aminopeptidase (LAP); assay: Enzymatic kinetic study of LAP reaction of activatable fluorescent probes; format: biochemical, porcine; conditions: for Fluorophore released in LAP reaction (% yield) / kinetics of LAP reaction (time-dependent fluorescence emission) / Fluorophore released in LAP reaction (concentration): 1 μM probe, 10 μg/mL LAP, PBS pH 7.4, 37° C., 80 min; for Fluorophore released in LAP reaction (concentration): calculated from fluorophore calibration curves; for LAP response / fluorophore release (in words): LAP reaction, enzymatic study
Experimental: All spectroscopic readings were measured with BioTek Synergy™ H1 spectrophotometer, using 96 well microplate. A parent stock solution of probes was dissolved in DMSO to obtain 10 mM. Leucine aminopeptidase was dissolved in deionized water to obtain 1 mg/mL. All spectra measurements were carried out in PBS buffer solution (PBS buffer, 10 mM, pH 7.4, 37° C. The final volume in 96 well microplate was adjusted to 200 μL. RPMI 1640 was obtained from Thermo Scientific (Waltham, MA, USA). Bestatin hydrochloride (LAP inhibitor), DMSO and 2-mercaptoethanol were purchased from Sigma Aldrich (St. Louis, Mo, USA).
The kinetic study for LAP reaction was performed by incubation of 2 μg of LAP ([…]) with 1 μM probe in PBS buffer (10 mM, pH 7.4). The plate was incubated at 37° C. for 80 min with continuous shaking, and the emission spectra were recorded at the corresponding wavelength over time. A solution of LAP (2 μg/200 μL) was pretreated with bestatin (0, 1, 10, 50 and 100 μM) in PBS (10 mM, pH 7.4) at 37° C. for 30 min, and then 1 μM of probe was added. The mixture was incubated at 37° C., and the fluorescence was recorded on Synergy™ H1 using a 96-well microplate.
All reagents and solvents were obtained from commercial sources Sigma-Aldrich Chemical Co., Combi-Block, Tokyo Chemical Industries, Daejung Chemicals, and Alfa Aesar and used without purification. Anhydrous solvents were purchased from Sigma-Aldrich and used under dry nitrogen atmosphere. Ultrapure water was obtained from a water ultra-purification system. Completion of reaction was confirmed by thin layer chromatography (TLC) on Kiesegel 60F254 from Merck and all synthesized compounds were purified by flash column chromatography using ZEOprep 60 (40-63) […] silica gel from ZEOCHEM. ^1H and ^13C NMR spectra were measured on JEOL JNMECZ400s/L1 (400 MHZ) and CDCl3 or DMSO-d6 was used as the NMR solvents. The chemical shifts were quoted in parts per million (ppm) and the coupling constant (J) were reported in hertz unit (Hz). Chemical shifts (in ppm) were referenced to tetramethylsilane (δ=0 ppm) in CDCl3 as an internal standard. ^13C NMR spectra were reported in ppm referenced to the center line of the triplet at 77.0 ppm for CDCl3 or 39.5 ppm for DMSO-d6. All in vitro enzyme assays were performed by taking the absorbance and emission on Synergy™ H1 microplate reader from BioTek. Leucine aminopeptidase from porcine kidney and other enzymes were purchased from Sigma-Aldrich.

[2] = Ex vivo plasma stability in mice serum; format: in vitro ADME, C57BL/6 mice; conditions: 10 μM probe; for % survival rate of probe in serum: C57BL/6 mice serum, 37° C.
Experimental: Animal was treated strictly according to the guidelines for laboratory animal care and use issued by the Sunchon National University Institutional Animal Care and Use Committee (SCNU IACUC). Female C57/BL6 mice (7 weeks old), weighing about 17-20 g, were purchased from Orientbio (Orientbio Inc., Seongnam, Korea). Blood was collected from the posterior orbital plexus in normal mice and centrifuged (5000 rpm, 4° C., 5 minutes) to obtain serum. The stability study was performed by incubation of the fluorescent probe (10 μM) or rhodol fluorophore (0.1, 0.3, 1, 3 and 10 μM) with serum at 37° C. . . . The fluorescence was detected on Synergy™ H1 microplate reader.

[3] = pH-dependent stability test; format: physicochemical; conditions: 1 μM probe, pH 2 to 12, 25° C.
Experimental: Thermal stability was evaluated by the incubation of 1 μM of the probe in PBS buffer (pH 7.4) at different temperatures ranging from 25 to 45° C. for 20 min and reading fluorescence at each temperature. The pH stability test was performed by the incubation with 1 μM probe in different pH buffers (2 to 13) at 25° C. and recording fluorescence at each pH.

[4] = test system: HepG2 cells; assay: Confocal live cell imaging in HepG2 cells; format: cell-based; conditions: 1 μM probe, LysoTracker Red DND-99, DAPI, HepG2 cells
Experimental: HepG2 cells were maintained in DMEM medium containing 10% FBS and 1% antibiotics in the 15 μ-plate 96 well black (ibidi, Germany). HepG2 cells were incubated with or without 500 μM of bestatin, LAP inhibitor, for 1 h and subsequently treated with 1 μM of probe and Lyso-Tracker™ Red (Thermo Scientific, USA) for 1 h. The treated cells were washed three times with PBS and treated with 10 μM of DAPI (Thermo Scientific, USA) for 2 h. Imaged were collected by Leica confocal microscopy (TCS SP5 AOBS/Tandem, Leica, Germany). Lyso-Tracker™ Red was excited by 514 nm and detected by 570-620 nm, compounds were excited by 476 nm and detected by 505-545 nm, DAPI was excited by 405 nm and detected by 420-470 nm.

[5] = test system: Leucine aminopeptidase (LAP); assay: Enzymatic kinetic study of LAP reaction of activatable fluorescent probes; format: biochemical, porcine; conditions: 1 μM probe; LAP 1, 5, 10, 20, 50, 100 μg/mL; PBS pH 7.4, 80 min, 37° C.

SMILES | Fluorophore released in LAP reaction (% yield) [1] [%] | kinetics of LAP reaction (time-dependent fluorescence emission) [1] | Fluorophore released in LAP reaction (concentration) [1] [µM] | other results
CCN(CC)c1ccc2c(c1)Oc1cc(OCc3ccc(NC(=O)[C@@H](N)CC(C)C)cc3)ccc1C21OC(=O)c2ccccc21 (stereo partly drawn) [Probe 5, (2S)-2-Amino-N-(4-(((3′-(diethylamino)-3-oxo-3H-spiro[isobenzofuran-1,9′-xanthen]-6′-yl)oxy)methyl)phenyl)-4-methylpentanamide] | 19.1 | notably slower kinetics | ~0.191 | LAP response / fluorophore release (in words) [1]: lower responses
CCN(CC)c1ccc2c(c1)Oc1cc(NC(=O)[C@@H](N)CC(C)C)ccc1C21OCc2ccccc21 (stereo partly drawn) [Probe 7, (2S)-2-Amino-N-(3′-(diethylamino)-3H-spiro[isobenzofuran-1,9′-xanthen]-6′-yl)-4-methylpentanamide] | 74.1 | – | ~0.741 | –
CCN(CC)c1ccc2c(c1)Oc1cc(NC(=O)OCc3ccc(NC(=O)[C@@H](N)CC(C)C)cc3)ccc1C21OCc2ccccc21 (stereo partly drawn) [Probe 9, 4-((S)-2-Amino-4-methylpentanamido)benzyl (3′-(diethylamino)-3H-spiro[isobenzofuran-1,9′-xanthen]-6′-yl)carbamate] | 32.8 | – | ~0.328 | –
COc1ccc2c(c1)Oc1cc(NC(=O)[C@@H](N)CC(C)C)ccc1C21OC(=O)c2ccccc21 (stereo partly drawn) [Probe 2, (2S)-2-Amino-N-(3′-methoxy-3-oxo-3H-spiro[isobenzofuran-1,9′-xanthen]-6′-yl)-4-methylpentanamide] | 89.7 | faster kinetics than those of the corresponding P2 and P3 probes | ~0.897 | time-dependent fluorescence emission in serum ([2]; C57/BL6 mice serum, 48 h): rapidly increased; % survival rate of probe in serum ([2]; 4 h p.i.): 45%; % survival rate of probe in serum ([2]; 48 h): 39%; pH-dependent stability (fluorescence of fluorophore released by degradation) [3]: increased fluorescence emission in the pH range of 7-9; lysosomal colocalization in confocal live cell imaging [4]: colocalized into lysosomes with LysoTracker; LAP response at various concentrations of LAP [5]: nearly maximal responses at 10 μg/mL of LAP
COc1ccc2c(c1)Oc1cc(OCc3ccc(NC(=O)[C@@H](N)CC(C)C)cc3)ccc1C21OC(=O)c2ccccc21 (stereo partly drawn) [Probe 6, (2S)-2-Amino-N-(4-(((3′-methoxy-3-oxo-3H-spiro[isobenzofuran-1,9′-xanthen]-6′-yl)oxy)methyl)phenyl)-4-methylpentanamide] | 37.3 | notably slower kinetics | ~0.373 | LAP response / fluorophore release (in words) [1]: lower responses; LAP response at various concentrations of LAP [5]: nearly maximal responses at 10 μg/mL of LAP
CCN(CC)c1ccc2c(c1)Oc1cc(OCc3ccc(NC(=O)[C@@H](N)CC(C)C)cc3)ccc1C21OCc2ccccc21 (stereo partly drawn) [Probe 11, (2S)-2-Amino-N-(4-(((3′-(diethylamino)-3H-spiro[isobenzofuran-1,9′-xanthen]-6′-yl)oxy)methyl)phenyl)-4-methylpentanamide] | 29.8 | notably slower kinetics | ~0.298 | LAP response / fluorophore release (in words) [1]: lower responses
CCN(CC)c1ccc2c(c1)Oc1cc(NC(=O)OCc3ccc(NC(=O)[C@@H](N)CC(C)C)cc3)ccc1C21OC(=O)c2ccccc21 (stereo partly drawn) [Probe 3, 4-((S)-2-Amino-4-methylpentanamido)benzyl (3′-(diethylamino)-3-oxo-3H-spiro[isobenzofuran-1,9′-xanthen]-6′-yl)carbamate] | – | – | ~0.987 | Fluorophore released in LAP reaction (% yield) ([1]; Rhoda-P2): 98.7%; Fluorophore released in LAP reaction (% yield) ([1]; listed as Rhoda-P2): 74.7%; pH-dependent stability (fluorescence of fluorophore released by degradation) [3]: no change in fluorescence emission according to the change in pH
COc1ccc2c(c1)Oc1cc(NC(=O)OCc3ccc(NC(=O)[C@@H](N)CC(C)C)cc3)ccc1C21OCc2ccccc21 (stereo partly drawn) [Probe 10, 4-((S)-2-Amino-4-methylpentanamido)benzyl (3′-methoxy-3H-spiro[isobenzofuran-1,9′-xanthen]-6′-yl)carbamate] | 67.6 | – | ~0.676 | –
COc1ccc2c(c1)Oc1cc(OCc3ccc(NC(=O)[C@@H](N)CC(C)C)cc3)ccc1C21OCc2ccccc21 (stereo partly drawn) [Probe 12, (2S)-2-Amino-N-(4-(((3′-methoxy-3H-spiro[isobenzofuran-1,9′-xanthen]-6′-yl)oxy)methyl)phenyl)-4-methylpentanamide] | 73.6 | – | ~0.736 | –
CCN(CC)c1ccc2c(c1)Oc1cc(NC(=O)[C@@H](N)CC(C)C)ccc1C21OC(=O)c2ccccc21 (stereo partly drawn) [Probe 1, (2S)-2-Amino-N-(3′-(diethylamino)-3-oxo-3H-spiro[isobenzofuran-1,9′-xanthen]-6′-yl)-4-methylpentanamide] | 66.7 | – | ~0.667 | pH-dependent stability (fluorescence of fluorophore released by degradation) [3]: increased fluorescence emission in the pH range of 7-9
COc1ccc2c(c1)Oc1cc(NC(=O)[C@@H](N)CC(C)C)ccc1C21OCc2ccccc21 (stereo partly drawn) [Probe 8, (2S)-2-Amino-N-(3′-methoxy-3H-spiro[isobenzofuran-1,9′-xanthen]-6′-yl)-4-methylpentanamide] | 93.9 | faster kinetics than those of the corresponding P2 and P3 probes | ~0.939 | –
